According to patent US20060029684A1, “Synergistic treatment of DNA viral infections” (Henderson Morley Research and Development Limited, priority 1999, published 2006):
Read-outs that look alike come from different tables or passages of the source.

How the values were obtained:
[1] = system: type 2 herpes simplex virus strain 3345; test: Inhibition of HSV2 replication in infected African green monkey kidney cells (Example 1, Table 1); format: cell-based; conditions: for inhibition of virus replication: Lithium 0 mN
Text: Compositions were applied to African green monkey kidney and […] cells infected with type 2 herpes simplex virus strains 3345 and 180 at low, intermediate and high multiplicities of infection. MOI inhibition of virus replication was scored as follows: […]

[2] = system: Type 2 herpes simplex strain 3345; test: Herpes simplex virus bioassay in Vero cells, inhibition of hsv2 (Example 2); format: cell-based; conditions: Human alphaherpesvirus 2, Vero
Procedure: . Culture and assay methods follow those described by Lennette and Schmidt (1979) for herpes simplex virus and Vero cells with minor modifications.
Type 1 herpes simplex strain HFEM is a derivative of the Rockerfeller strain HF (Wildy 1955), and Type 2 herpes simplex strain 3345, a penile isolate (Skinner et al 1977) were used as prototype strains. These prototypes were stored at −80° C. until needed.
African Green Monkey kidney cells (vero) were obtained from the National Institute of Biological Standards and Control UK and were used as the only cell line for all experiments in this example.
Cells and viruses were maintained on Glasgows modified medium supplemented with 10% foetal bovine serum.

Q: Which results are given for `NS(=O)(=O)c1cc(C(=O)O)c(NCc2ccco2)cc1Cl` [Frusemide, 4-chloro-N-furfuryl-5-sulfamoylanthranilic acid]?
A: inhibition of virus replication ([1]; HIGH MOI HSV2, Frusemide 0.5 mg/ml): − (No inhibition); inhibition of virus replication ([1]; HIGH MOI HSV2, Frusemide 1.0 mg/ml): − (No inhibition); inhibition of virus replication ([1]; HIGH MOI HSV2, Frusemide 2.0 mg/ml): − (No inhibition); inhibition at 500 µg/mL ([1]; Human alphaherpesvirus 2): 0%; inhibition at 1000 µg/mL ([1]; Human alphaherpesvirus 2): 0%; inhibition at 2000 µg/mL ([1]; Human alphaherpesvirus 2): 0%; inhibition of virus replication ([1]; LOW MOI HSV2, Frusemide 0.5 mg/ml): − (No inhibition); inhibition of virus replication ([1]; LOW MOI HSV2, Frusemide 1.0 mg/ml): − (No inhibition); inhibition of virus replication ([1]; LOW MOI HSV2, Frusemide 2.0 mg/ml): − (No inhibition); inhibition of hsv2 replication ([1]; frusemide 2 mg/ml, all multiplicities of infection): no inhibition; inhibition at 1000 µg/mL ([2]; read-out: Inhibition of hsv2, Effect of frusemide alone, Multiplicity of infection High, frusemide (1 mg/ml)): 0%; inhibition at 1000 µg/mL ([2]; read-out: Inhibition of hsv2, Effect of frusemide alone, Multiplicity of infection Low, frusemide (1 mg/ml)): 40%; inhibition at 1000 µg/mL ([2]; read-out: Inhibition of hsv2, Effect of frusemide alone, Multiplicity of infection Medium, frusemide (1 mg/ml)): 40%
